Laboratory results taken from patent US20240228489A1, “POSITIVE ALLOSTERIC MODULATORS OF THE MUSCARINIC ACETYLCHOLINE RECEPTOR M1” (Vanderbilt University, priority 2021, published 2024).
pEC50: −log10 of the molar value.

Legend:
human mAChR M1 [1] = target: T1, human mAChR M1 (Homo sapiens, UniProt P11229); assay: mAChR M1 cell-based functional assay (calcium mobilization), PAM mode: increase in the EC20 acetylcholine response
T1 sequence (P11229 1-460): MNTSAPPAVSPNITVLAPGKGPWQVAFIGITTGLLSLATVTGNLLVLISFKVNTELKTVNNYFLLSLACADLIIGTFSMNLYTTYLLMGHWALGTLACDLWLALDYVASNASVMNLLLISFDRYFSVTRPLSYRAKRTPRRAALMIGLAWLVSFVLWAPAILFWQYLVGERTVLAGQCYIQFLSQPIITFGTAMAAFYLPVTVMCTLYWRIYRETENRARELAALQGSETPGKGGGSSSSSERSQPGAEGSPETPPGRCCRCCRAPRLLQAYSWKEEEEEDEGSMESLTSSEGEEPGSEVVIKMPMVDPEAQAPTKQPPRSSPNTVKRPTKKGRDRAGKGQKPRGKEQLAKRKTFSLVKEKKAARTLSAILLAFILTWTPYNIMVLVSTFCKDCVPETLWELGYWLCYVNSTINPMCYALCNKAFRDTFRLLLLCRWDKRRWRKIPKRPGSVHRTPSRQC
In short: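 CHO-K1 cells stably expressing hM1, Fluo-4 loaded, read by FDSS calcium flux at 1 Hz. Compound (11-point 1:3 CRC) added at 4 s, EC20 acetylcholine at 144 s, EC80 at 230 s. PAM activity taken as concentration-dependent increase in EC20 ACh response, fitted by four-parameter logistic for EC50/Emax.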

human mAChR M1 [2] = target: T1, human mAChR M1; assay: mAChR M1 cell-based functional assay (calcium mobilization), agonist mode: compound alone, Emax relative to acetylcholine maximum; conditions: for pEC50 / Agonist Activity Human M1 EC50: human mAChR M1; for Emax: relative to the maximum for acetylcholine
In short: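 CHO-K1 cells stably expressing hM1 were loaded with Fluo-4 AM, and calcium flux was read as fluorescence ratio. Compound was added alone from an 11-point 1:3 curve, and the agonist response was fitted with a four-parameter logistic. Emax is expressed relative to the acetylcholine maximum.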

| SMILES | pEC50 (human mAChR M1 [1]) | Emax (human mAChR M1 [1]) [%] | pEC50 (human mAChR M1 [2]) | Emax (human mAChR M1 [2]) [%] | Agonist Activity Human M1 EC50 (human mAChR M1 [2]) |
| --- | --- | --- | --- | --- | --- |
| [2H]C1([2H])c2ncc(O)cc2C(=O)N1Cc1c(F)cc(-c2cccc3nn(C)cc23)cc1F [Compound 62, 6-(2,6-Difluoro-4-(2-methyl-2H-indazol-4-yl)benzyl)-3-hydroxy-6,7-dihydro-5H-pyrrolo[3,4-b]pyridin-5-one-7,7-d2] | 6.97 | 67 | 5.36 | 57 | – |
| [2H]C1([2H])c2ncccc2C(=O)N1Cc1ccc(-c2ccc(OC3CN(C(=O)OC(C)(C)C)C3)c3nn(C)cc23)cc1F [Compound 176, tert-butyl 3-((4-(3-fluoro-4-((5-oxo-5,7-dihydro-6H-pyrrolo[3,4-b]pyridin-6-yl-7,7-d2)methyl)phenyl)-2-methyl-2H-indazol-7-yl)oxy)azetidine-1-carboxylate] | 5.88 | 60 | – | 2 | Inactive |
| [2H]C1([2H])c2ncccc2C(=O)N1Cc1c(F)cc(-c2ccc(OC)c3nn(C)cc23)cc1Cl [Compound 163, 6-(2-chloro-6-fluoro-4-(7-methoxy-2-methyl-2H-indazol-4-yl)benzyl)-6,7-dihydro-5H-pyrrolo[3,4-b]pyridin-5-one-7,7-d2] | 6.62 | 81 | – | 3 | Inactive |
| [2H]C1([2H])c2ncccc2C(=O)N1Cc1c(F)cc(-c2cc(C(F)F)cc3nn(C)cc23)cc1F [Compound 81, 6-(4-(6-(difluoromethyl)-2-methyl-2H-indazol-4-yl)-2,6-difluorobenzyl)-6,7-dihydro-5H-pyrrolo[3,4-b]pyridin-5-one-7,7-d2] | 6.80 | 48 | – | 2 | Inactive |
| [2H]C1([2H])c2ncccc2C(=O)N1Cc1c(F)cc(-c2ccc(OC3CN(C(C)C)C3)c3nn(C)cc23)cc1F [Compound 180, 6-(2,6-difluoro-4-(7-((1-isopropylazetidin-3-yl)oxy)-2-methyl-2H-indazol-4-yl)benzyl)-6,7-dihydro-5H-pyrrolo[3,4-b]pyridin-5-one-7,7-d2] | 6.53 | 85 | – | 9 | Inactive |
| [2H]C1([2H])c2ncccc2C(=O)N1Cc1ccc(-c2ccc(OC(C)COC)c3nn(C)cc23)cc1F (stereo not drawn) [Compound 143, 6-(2-fluoro-4-(7-((1-methoxypropan-2-yl)oxy)-2-methyl-2H-indazol-4-yl)benzyl)-6,7-dihydro-5H-pyrrolo[3,4-b]pyridin-5-one-7,7-d2] | 5.90 | 74 | ≤ 5.00 | 15 | – |
| [2H]C1([2H])c2ncccc2C(=O)N1Cc1ccc(-c2ccc(C)c3nn(C([2H])([2H])[2H])cc23)cc1C [Compound 58, 6-(2-methyl-4-(7-methyl-2-(methyl-d3)-2H-indazol-4-yl)benzyl)-6,7-dihydro-5H-pyrrolo[3,4-b]pyridin-5-one-7,7-d2] | 6.21 | 83 | – | 4 | Inactive |
| [2H]C1([2H])c2ncccc2C(=O)N1Cc1c(F)cc(-c2ccc(O[C@H](C)COC)c3nn(C)cc23)cc1F [Compound 148, (R)-6-(2,6-difluoro-4-(7-((1-methoxypropan-2-yl)oxy)-2-methyl-2H-indazol-4-yl)benzyl)-6,7-dihydro-5H-pyrrolo[3,4-b]pyridin-5-one-7,7-d2] | 6.27 | 81 | ≤ 5.00 | 31 | – |
| [2H]C1([2H])c2ncccc2C(=O)N1Cc1ccc(-c2ccc(OC[C@@H](C)OC)c3nn(C)cc23)cc1F [Compound 175, (R)-6-(2-fluoro-4-(7-(2-methoxypropoxy)-2-methyl-2H-indazol-4-yl)benzyl)-6,7-dihydro-5H-pyrrolo[3,4-b]pyridin-5-one-7,7-d2] | 6.08 | 86 | ≤ 5.00 | 12 | – |
| [2H]C1([2H])c2ncccc2C(=O)N1Cc1c(F)cc(-c2cc(F)c(F)c3c2cnn3C([2H])([2H])[2H])cc1F [Compound 252, 6-(4-(6,7-difluoro-1-(methyl-d3)-1H-indazol-4-yl)-2,6-difluorobenzyl)-6,7-dihydro-5H-pyrrolo[3,4-b]pyridin-5-one-7,7-d2] | < 5.00 | 15 | – | 2 | Inactive |
| [2H]C1([2H])c2ncccc2C(=O)N1Cc1c(F)cc(-c2cccc3nn(C)cc23)cc1OC [Compound 231, 6-(2-fluoro-6-methoxy-4-(2-methyl-2H-indazol-4-yl)benzyl)-6,7-dihydro-5H-pyrrolo[3,4-b]pyridin-5-one-7,7-d2] | 6.09 | 73 | – | 7 | Inactive |
| [2H]C1([2H])c2ncccc2C(=O)N1Cc1ccc(-c2cc(C)c3nn(C)cc3c2)cc1F [Compound 25, 6-(4-(2,7-dimethyl-2H-indazol-5-yl)-2-fluorobenzyl)-6,7-dihydro-5H-pyrrolo[3,4-b]pyridin-5-one-7,7-d2] | 5.97 | 76 | – | 4 | Inactive |
| [2H]C1([2H])c2ncccc2C(=O)N1Cc1ccc(-c2ccc3c(cnn3C)c2)cc1F [Compound 10, 6-(2-fluoro-4-(1-methyl-1H-indazol-5-yl)benzyl)-6,7-dihydro-5H-pyrrolo[3,4-b]pyridin-5-one-7,7-d2] | 5.84 | 62 | – | 4 | Inactive |
| [2H]C1([2H])c2ncccc2C(=O)N1Cc1c(F)cc(-c2cccc3nn(C([2H])([2H])[2H])cc23)cc1C1CCCC1 [Compound 224, 6-(2-cyclopentyl-6-fluoro-4-(2-(methyl-d3)-2H-indazol-4-yl)benzyl)-6,7-dihydro-5H-pyrrolo[3,4-b]pyridin-5-one-7,7-d2] | 5.19 | 62 | – | 1 | Inactive |
| [2H]C1([2H])c2ncccc2C(=O)N1Cc1c(F)cc(-c2ccc(OCCOC)c3nn(C)cc23)cc1OCC(C)C [Compound 218, 6-(2-fluoro-6-isobutoxy-4-(7-(2-methoxyethoxy)-2-methyl-2H-indazol-4-yl)benzyl)-6,7-dihydro-5H-pyrrolo[3,4-b]pyridin-5-one-7,7-d2] | 6.29 | 79 | 5.11 | 25 | – |
| [2H]C1([2H])c2ncccc2C(=O)N1Cc1ccc(-c2ccc(C)c3nn(C)cc23)cc1C [Compound 30, 6-(4-(2,7-dimethyl-2H-indazol-4-yl)-2-methylbenzyl)-6,7-dihydro-5H-pyrrolo[3,4-b]pyridin-5-one-7,7-d2] | 5.96 | 79 | < 5.00 | 22 | – |
| [2H]C1([2H])c2ncccc2C(=O)N1Cc1c(F)cc(-c2cccc3nn(C)cc23)cc1N1CCC1 [Compound 221, 6-(2-(azetidin-1-yl)-6-fluoro-4-(2-methyl-2H-indazol-4-yl)benzyl)-6,7-dihydro-5H-pyrrolo[3,4-b]pyridin-5-one-7,7-d2] | 5.57 | 82 | – | 2 | Inactive |
| [2H]C1([2H])c2ncccc2C(=O)N1Cc1c(C)cc(-c2ccc(F)c3nn(C([2H])([2H])[2H])cc23)cc1F [Compound 158, 6-(2-fluoro-4-(7-fluoro-2-(methyl-d3)-2H-indazol-4-yl)-6-methylbenzyl)-6,7-dihydro-5H-pyrrolo[3,4-b]pyridin-5-one-7,7-d2] | 6.42 | 80 | – | 6 | Inactive |
| [2H]C1([2H])c2ncccc2C(=O)N1Cc1c(Cl)cc(-c2cccc3nn(C)cc23)cc1Cl [Compound 227, 6-(2,6-dichloro-4-(2-methyl-2H-indazol-4-yl)benzyl)-6,7-dihydro-5H-pyrrolo[3,4-b]pyridin-5-one-7,7-d2] | 6.05 | 63 | – | 1 | Inactive |
| [2H]C1([2H])c2ncccc2C(=O)N1Cc1ccc(-c2ccc(O[C@@H](C)COC)c3nn(C)cc23)cc1F [Compound 152, (S)-6-(2-fluoro-4-(7-((1-methoxypropan-2-yl)oxy)-2-methyl-2H-indazol-4-yl)benzyl)-6,7-dihydro-5H-pyrrolo[3,4-b]pyridin-5-one-7,7-d2] | 6.19 | 80 | ≤ 5.00 | 27 | – |
| [2H]C([2H])([2H])Oc1cnc2c(c1)C(=O)N(Cc1c(F)cc(-c3cccc4nn(C)cc34)cc1F)C2([2H])[2H] [Compound 63, 6-(2,6-Difluoro-4-(2-methyl-2H-indazol-4-yl)benzyl)-3-(methoxy-d3)-6,7-dihydro-5H-pyrrolo[3,4-b]pyridin-5-one-7,7-d2] | 6.90 | 89 | – | 3 | Inactive |
